Patent US9271971B2, “Pyrido[3,4-B]indoles and methods of use” (Medivation Technologies, Inc., priority 2009, dated 2016)

What was measured:
[1] = target: T1, human recombinant adrenergic α1D receptor (Homo sapiens, UniProt P25100); assay: Adrenergic α1D radioligand binding assay; conditions: [3H]Prozosin specific binding; for inhibition at 1 µM: read-out: Percent Inhibition of ligand binding, Adrenergic (1 μM ligand conc.) α1D; for inhibition at 0.1 µM: read-out: Percent Inhibition of ligand binding, Adrenergic (0.1 μM ligand conc.) α1D
T1 construct: expressed in transfected cells; host or cells: human embryonic kidney (HEK-293) cells
T1 sequence (P25100 1-572): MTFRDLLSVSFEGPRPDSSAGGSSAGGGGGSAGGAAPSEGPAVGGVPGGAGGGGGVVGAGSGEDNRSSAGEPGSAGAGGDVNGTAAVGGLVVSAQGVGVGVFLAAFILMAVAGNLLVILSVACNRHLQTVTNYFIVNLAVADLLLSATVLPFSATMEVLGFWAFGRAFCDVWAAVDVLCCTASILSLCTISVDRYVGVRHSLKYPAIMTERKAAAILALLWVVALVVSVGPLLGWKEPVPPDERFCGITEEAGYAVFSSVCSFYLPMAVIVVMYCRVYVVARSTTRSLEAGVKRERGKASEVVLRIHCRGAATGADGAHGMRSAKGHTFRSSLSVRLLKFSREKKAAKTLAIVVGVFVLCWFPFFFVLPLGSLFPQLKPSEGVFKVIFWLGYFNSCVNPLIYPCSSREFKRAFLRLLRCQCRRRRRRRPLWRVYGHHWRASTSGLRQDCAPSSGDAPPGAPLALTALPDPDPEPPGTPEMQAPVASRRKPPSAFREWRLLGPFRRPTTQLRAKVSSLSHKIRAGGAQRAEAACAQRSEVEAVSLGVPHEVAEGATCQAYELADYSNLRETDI
Protocol: To evaluate in radioligand binding assays the activity of compounds of the invention, human recombinant adrenergic α1D receptor expressed in human embryonic kidney (HEK-293) cells [Kenny, B. A. et al. Br. J. Pharmacol. (1995), 115(6):981] in a 50 mM Tris-HCl buffer, pH 7.4, was used. Compounds of invention were incubated with 0.6 nM [^3H]Prozosin for 60 min. at 25° C. Non-specific binding was estimated in the presence of 10 μM phentolamine. Receptor proteins were filtered and washed, the filters were then counted to determine [^3H]Prozosin specifically bound. Compounds were screened at 1 μM or lower, using 1% DMSO as vehicle. Compounds of the invention were tested in this biochemical assay. Biochemical assay results for representative compounds were presented as the percent inhibition of specific binding in Table 3.

[2] = target: T2, human recombinant adrenergic α2A receptor (Homo sapiens, UniProt P08913); assay: Adrenergic α2A radioligand binding assay; conditions: [3H]MK-912 specific binding; for inhibition at 1 µM: read-out: Percent Inhibition of ligand binding, Adrenergic (1 μM ligand conc.) α2A; for inhibition at 0.1 µM: read-out: Percent Inhibition of ligand binding, Adrenergic (0.1 μM ligand conc.) α2A
T2 construct: expressed in transfected cells; host or cells: insect Sf9 cells
T2 sequence (P08913 1-465): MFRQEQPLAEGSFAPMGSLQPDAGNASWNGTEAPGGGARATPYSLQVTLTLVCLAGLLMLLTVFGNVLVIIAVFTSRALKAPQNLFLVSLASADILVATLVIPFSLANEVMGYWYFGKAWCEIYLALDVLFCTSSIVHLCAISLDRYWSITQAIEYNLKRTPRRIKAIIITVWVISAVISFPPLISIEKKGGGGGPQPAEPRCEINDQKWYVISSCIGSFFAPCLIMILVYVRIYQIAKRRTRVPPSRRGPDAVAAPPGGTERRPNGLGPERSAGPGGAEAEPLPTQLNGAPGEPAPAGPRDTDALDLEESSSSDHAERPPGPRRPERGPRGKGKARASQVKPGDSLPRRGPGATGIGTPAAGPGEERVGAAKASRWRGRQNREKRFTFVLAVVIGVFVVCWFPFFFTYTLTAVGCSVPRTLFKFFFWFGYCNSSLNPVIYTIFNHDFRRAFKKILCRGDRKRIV
Protocol: To evaluate in radioligand binding assays the activity of compounds of the invention, human recombinant adrenergic α2A receptor expressed in insect Sf9 cells [Uhlen, S et al. J. Pharmacol. Exp. Ther. (1994), 271:1558] in a modified Tris-HCl buffer (50 mM Tris-HCl, pH 7.4, 12.5 mM MgCl2, 2 mM EDTA) was used. Compounds of invention were incubated with 1 nM [^3H]MK-912 for 60 min. at 25° C. MK912 was (2S-trans)-1,3,4,5′,6,6′,7,12b-octahydro-1′,3′-dimethyl-spiro[2H-benzofuro[2,3-a]quinolizine-2,4′(1′H)-pyrimidin]-2′(3′H)-one hydrochloride Non-specific binding was estimated in the presence of 10 μM WB-4101 (2-(2,6-dimethoxyphenoxyethyl)aminomethyl-1,4-benzodioxane hydrochloride). Receptor proteins were filtered and washed, the filters were then counted to determine [^3H]MK-912 specifically bound. Compounds were screened at 1 μM or lower, using 1% DMSO as vehicle. Compounds of the invention were tested in this biochemical assay. Biochemical assay results for representative compounds were presented as the percent inhibition of specific binding in Table 3.

[3] = target: T3, human recombinant serotonin (5-Hydroxytryptamine) 5-HT2A receptor (Homo sapiens, UniProt P28223); assay: Serotonin 5-HT2A radioligand binding assay; conditions: [3H]Ketanserin specific binding, read-out: Percent Inhibition of ligand binding, Serotonin (1 μM ligand concentration) 5-HT2A
T3 construct: expressed in transfected cells; host or cells: Chinese hamster ovary (CHO-K1) cells
T3 sequence (P28223 whole entry): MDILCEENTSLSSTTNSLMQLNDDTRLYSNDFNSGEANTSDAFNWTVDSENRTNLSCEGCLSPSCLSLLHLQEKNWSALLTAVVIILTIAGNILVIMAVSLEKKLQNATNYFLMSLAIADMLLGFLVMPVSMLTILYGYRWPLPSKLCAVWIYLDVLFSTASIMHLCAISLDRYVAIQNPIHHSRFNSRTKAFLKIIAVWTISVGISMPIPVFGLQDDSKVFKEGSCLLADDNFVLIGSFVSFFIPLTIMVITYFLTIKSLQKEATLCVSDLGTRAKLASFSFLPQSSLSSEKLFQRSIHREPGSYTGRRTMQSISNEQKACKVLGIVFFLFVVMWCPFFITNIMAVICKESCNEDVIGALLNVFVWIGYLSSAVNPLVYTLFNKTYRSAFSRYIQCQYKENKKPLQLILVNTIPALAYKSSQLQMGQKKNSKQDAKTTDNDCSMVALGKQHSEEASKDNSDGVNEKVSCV
Protocol: To evaluate in radioligand binding assays the activity of compounds of the invention, human recombinant serotonin (5-Hydroxytryptamine) 5-HT2A receptor expressed in Chinese hamster ovary (CHO-K1) cells [Bonhaus, D. W. et al., Br. J. Pharmacol. (1995), 115:622; Saucier, C. et al., J. Neurochem. (1997), 68:1998] in a 50 mM Tris-HCl buffer, pH 7.4, was used. Compounds of the invention were incubated with 0.5 nM [^3H]Ketanserin for 60 min. at 25° C. Non-specific binding was estimated in the presence of 1 μM Mianserin. Receptor proteins were filtered and washed, the filters were then counted to determine [^3H]Ketanserin specifically bound. Compounds were screened at 1 μM or lower, using 1% DMSO as vehicle. Biochemical assay results are presented as the percent inhibition of specific binding in Table 4.

[4] = target: human recombinant dopamine D2L receptor (Homo sapiens, UniProt P14416); assay: Dopamine D2L radioligand binding assay; conditions: [3H]Spiperone specific binding; for inhibition at 1 µM: read-out: Percent Inhibition of ligand binding, Dopamine (1 μM ligand conc.) D2L
Sequence of human recombinant dopamine D2L receptor (P14416 whole entry): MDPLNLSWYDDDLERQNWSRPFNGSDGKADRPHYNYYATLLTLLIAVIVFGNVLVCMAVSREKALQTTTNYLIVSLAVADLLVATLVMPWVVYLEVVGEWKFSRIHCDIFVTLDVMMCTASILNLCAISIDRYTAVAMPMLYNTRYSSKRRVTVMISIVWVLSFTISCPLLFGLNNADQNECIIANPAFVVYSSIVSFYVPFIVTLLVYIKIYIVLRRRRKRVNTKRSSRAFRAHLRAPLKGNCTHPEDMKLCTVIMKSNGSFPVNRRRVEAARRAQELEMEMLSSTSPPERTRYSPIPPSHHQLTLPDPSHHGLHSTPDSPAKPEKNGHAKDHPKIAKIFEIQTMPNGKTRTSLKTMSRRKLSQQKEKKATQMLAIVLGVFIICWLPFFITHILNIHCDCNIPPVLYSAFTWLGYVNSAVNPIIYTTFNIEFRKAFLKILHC
Protocol: To evaluate in radioligand binding assays the activity of compounds of the invention, human recombinant dopamine D2L receptor expressed in Chinese hamster ovary (CHO) cells [Grandy, D. K. et al. Proc. Natl. Acad. Sci. USA. (1989), 86:9762; Hayes, G. et al., Mol. Endocrinol. (1992), 6:920] in a modified Tris-HCl buffer (50 mM Tris-HCl, pH 7.4, 1.4 mM Ascorbic Acid, 0.001% BSA, 150 mM NaCl) was used. Compounds of the invention were incubated with 0.16 nM [^3H]Spiperone for 120 min. at 25° C. Non-specific binding was estimated in the presence of 10 μM Haloperidol. Receptor proteins were filtered and washed, the filters were then counted to determine [^3H]Spiperone specifically bound. Compounds were screened at 1 μM or lower, using 1% DMSO as vehicle. Biochemical assay results are presented as the percent inhibition of specific binding in Table 3.

Row | SMILES | inhibition at 1 µM [1] | inhibition at 1 µM [2] | inhibition at 1 µM [3] | inhibition at 1 µM [4] | Percent Inhibition of ligand binding, Dopamine (1 μM ligand conc.) D2L [4] | inhibition at 0.1 µM [1] | inhibition at 0.1 µM [2]
1 | Cc1ccc2c(c1)c1c(n2CC(C)(O)c2ccc(F)c(F)c2)CN2CCC1C2 (stereo not shown) [Compound 15] | 28% | 21% | 82% | 0% | – | – | –
2 | COc1ccc(C(O)Cn2c3c(c4cc(C)ccc42)C2CCN(C3)C2)cc1OC (stereo not shown) [Compound 8] | 20% | 1% | 25% | -16% | – | – | –
3 | Cc1ccc2c(c1)c1c(n2CC(=O)c2ccc(F)cc2)CN2CCC1C2 (stereo not shown) [Compound 28] | 49% | 86% | 61% | 1% | – | – | –
4 | Cc1ccc2c(c1)c1c(n2CC(=O)N2CCCCC2)CN2CCC1C2 (stereo not shown) [Compound 7] | -7% | 9% | -3% | -3% | – | – | –
5 | Cc1ccc2c(c1)c1c(n2CC(=O)N2CCOCC2)CN2CCC1C2 (stereo not shown) [Compound 26] | 6% | -4% | 5% | 10% | – | – | –
6 | C=C(Cn1c2c(c3cc(C)ccc31)C1CCN(C2)C1)c1ccc(F)cc1 (stereo not shown) [Compound 3] | 93% | 93% | 94% | 12% | 21% | – | –
7 | C/C(=C\n1c2c(c3cc(C)ccc31)C1CCN(C2)C1)c1ccncc1 (stereo not shown) [Compound 44] | – | – | 67% | 9% | – | 8% | -5%
8 | Cc1ccc2c(c1)c1c(n2C(=O)Cc2ccc(Cl)cc2)CN2CCC1C2 (stereo not shown) [Compound 36] | – | – | 89% | 3% | – | -2% | 24%
9 | Cc1ccc2c(c1)c1c(n2CC(=O)N2CCNCC2)CN2CCC1C2 (stereo not shown) [Compound 24] | 2% | 4% | 3% | -8% | – | – | –
10 | Cc1ccc2c(c1)c1c(n2CC(=O)c2ccccc2)CN2CCC1C2 (stereo not shown) [Compound 21] | -4% | 5% | 16% | -2% | – | – | –
11 | Cc1ccc2c(c1)c1c(n2CCc2ccc(C(F)(F)F)nc2)CN2CCC1C2 (stereo not shown) [Compound 1] | 51% | 25% | 18% | 8% | – | – | –
12 | C/C(=C\n1c2c(c3cc(C)ccc31)C1CCN(C2)C1)c1ccccc1F (stereo not shown) [Compound 38] | – | – | 90% | 1% | – | -3% | 3%
13 | Cc1ccc2c(c1)c1c(n2CCc2ccccn2)CN2CCC1C2 (stereo not shown) [Compound 11] | 26% | -15% | 10% | -6% | – | – | –
14 | Cc1ccc2c(c1)c1c(n2CC(=O)N(C)C)CN2CCC1C2 (stereo not shown) [Compound 27] | 9% | 5% | -4% | 11% | – | – | –
15 | Cc1ccc2c(c1)c1c(n2CC(C)(O)c2ccc(Cl)cc2)CN2CCC1C2 (stereo not shown) [Compound 16] | 24% | 28% | 92% | 5% | – | – | –
16 | Cc1ccc2c(c1)c1c(n2CC(O)c2ccccc2)CN2CCC1C2 (stereo not shown) [Compound 4] | 54% | 54% | 49% | 3% | – | – | –
17 | C/C(=C\n1c2c(c3cc(C)ccc31)C1CCN(C2)C1)c1ccc(F)cc1 (stereo not shown) [Compound 22] | 81% | 93% | 97% | 21% | 25% | – | –
18 | Cc1ccc2c(c1)c1c(n2CCc2ccc(C)nc2)CN2CCC1C2 (stereo not shown) [Compound 12] | 25% | -4% | 17% | 0% | – | – | –
19 | Cc1ccc2c(c1)c1c(n2CC(=O)N2CCC(C)CC2)CN2CCC1C2 (stereo not shown) [Compound 25] | -1% | -7% | 2% | 9% | – | – | –
20 | Cc1ccc2c(c1)c1c(n2CCc2nc(-c3ccccc3)cs2)CN2CCC1C2 (stereo not shown) [Compound 19] | 34% | -10% | 0% | -2% | – | – | –
21 | C/C(=C\n1c2c(c3cc(C)ccc31)C1CCN(C2)C1)c1ccc(Cl)cc1 (stereo not shown) [Compound 32] | 80% | 96% | 86% | -12% | – | 9% | 45%
